{"source": "patent US9605285B2", "about": "“Compositions and methods for succinate production” (CARGILL, INCORPORATED, priority 2011, dated 2017)", "test_system": "yeast cells", "test": "EMS mutagenesis of yeast cells", "assay_type": "cell-based", "details": "3 μL EMS per 200 μL cell suspension, approximately one hour", "procedure": "For example, yeast cells from a fresh YP (yeast extract/peptone)+20 g/L glucose plate or liquid culture (OD600 1-4) are resuspended in sterile water to an OD600 of around 10. 200 μL aliquots of this cell suspension are pipetted into individual tubes and exposed to 3 μL […] (EMS) for approximately one hour, which kills around 65% of the cells. Higher EMS concentrations can also be used to increase the kill rate. After exposure, cells are neutralized with 5% sodium thiosulfate, washed in PBS buffer, recovered in rich media for approximately four hours, and cultured on selective media. Mock samples (no EMS) are also run to ensure that the conditions are selective. Alternatively, cell can be mutagenized using UV irradiation.", "data": [{"smiles": "CCOS(C)(=O)=O", "note": "[EMS, ethane methyl sulfonate]", "values": [{"measurement": "Cells killed", "value": "around 65%"}]}]}
